Measured values taken from publication PMC6768106, “The crystal structure of AcrR from Mycobacterium tuberculosis reveals a one‐component transcriptional regulation mechanism” (FEBS Open Bio, 2019).

Biological target: AcrR (Mycobacterium tuberculosis, UniProt O07229)
Sequence (O07229 entry or part of it): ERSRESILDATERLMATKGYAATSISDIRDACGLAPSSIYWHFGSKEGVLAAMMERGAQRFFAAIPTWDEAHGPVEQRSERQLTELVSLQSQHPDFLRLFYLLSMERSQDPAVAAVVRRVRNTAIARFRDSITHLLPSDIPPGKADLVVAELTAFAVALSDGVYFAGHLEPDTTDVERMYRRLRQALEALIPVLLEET

SMILES: CCCCCCCCCCCCCCCC(=O)O [palmitate]
- STD-NMR; also EMSA (promoter DNA release) and CD titration: which reveals the binding between AcrR and palmitate
